Blank lines part the entries; values can stand above or below the compound they belong to. Activity calls are given as the source filed them. The calls are words filed in the database; no cut-off is given here.
Columns and labels:
Cavia porcellus [1] = species: Cavia porcellus; assay: The effective dose to inhibit 20% was measured on guinea pig; type: functional
Cavia porcellus [2] = species: Cavia porcellus; assay: The effective dose to inhibit 50% was measured on guinea pig; type: functional
Rattus norvegicus [3] = species: Rattus norvegicus; assay: The inhibitory concentration (IC50) for vasorelaxation on rat aorta; type: functional
[4] = EC25 and IC50 Ratio of the compound; type: functional; parameters: reference not given here
Rattus norvegicus [5] = species: Rattus norvegicus; assay: The effective concentration (EC25) was measured for anti-ischemic activity on perfused rat hearts; type: functional
Cavia porcellus [6] = species: Cavia porcellus; assay: The inhibitory concentration for 50% was measured on guinea pig bladder strips; type: functional
Rattus norvegicus [7] = species: Rattus norvegicus; assay: The effective dose for relaxation was measured on rat aorta rings; type: functional; details: read-out: ED50 (the source's name)
Rattus norvegicus [8] = species: Rattus norvegicus; assay: The percentage of residual insulin release at 50 uM of compound in the presence of glucose on rat pancreatic beta cells; type: functional
[9] = Inhibition of glyburide binding to K-ATP potassium channel; Inactive
Rattus norvegicus [10] = species: Rattus norvegicus; assay: In vitro inhibitory concentration for 50% vasorelaxant effect was measured on rat aorta strips; type: functional
[11] = target: T1, Sulfonylurea receptor 2, Kir6.2 (Homo sapiens, UniProt O60706+Q14654); assay: Inhibition of human SUR2A/Kir6.2 expressed in Xenopus oocytes; type: cell-based, Oocyte
Rattus norvegicus [12] = species: Rattus norvegicus; assay: The inhibitory concentration was measured on the rat insulinoma cell line RIN-m5F; type: functional
Cavia porcellus [13] = species: Cavia porcellus; assay: The inhibitory concentration was measured on guinea pig cardiomyocytes; type: functional
Cavia porcellus [14] = species: Cavia porcellus; assay: Relaxation of guinea pig bladder strips when contracted with 20 mM KCl; type: functional
[15] = target: T2, Potassium voltage-gated channel subfamily A member 5 (Homo sapiens, UniProt P22460); assay: (§1) Inhibition of voltage-gated potassium channel subunit Kv1.5; type: functional
[16] = target: Gardos channel, KCNN4/IK1 (Homo sapiens); assay: Selectivity for gardos channel; (Gardos channel vs 2000 nM for the cardiac IKs channel).)
[17] = target: Voltage-gated potassium channel, IKs; KCNQ1(Kv7.1)/KCNE1(MinK) (Homo sapiens, UniProt P15382+P51787); assay: Inhibition of Iks current KvLQT1 potassium channel; type: protein-complex assay
Rattus norvegicus [18] = species: Rattus norvegicus; assay: The effective concentration was measured on rat aorta strips; type: functional
[19] = target: T1, Sulfonylurea receptor 2, Kir6.2; assay: (§2) Inhibition of SUR2B/Kir6.2; type: protein-complex assay, Rattus norvegicus
[20] = target: T1, Sulfonylurea receptor 2, Kir6.2; assay: as §2; type: protein-complex assay
Rattus norvegicus [21] = species: Rattus norvegicus; assay: The inhibitory concentration for 50% was measured on rat aorta strips; type: functional
[22] = In vitro reduction of glutamate release in hippocampal slices; type: functional, tissue-based; details: Rattus norvegicus, Hippocampus
[23] = target: T2, Potassium voltage-gated channel subfamily A member 5; assay: The inhibitory concentration for 50% was measured on cation flux
[24] = target: T2, Potassium voltage-gated channel subfamily A member 5; assay: as §1
[25] = target: T3, Small conductance calcium-activated potassium channel protein 1 (Homo sapiens, UniProt Q92952); assay: Inhibition of hSK1 calcium activated potassium channel (SKCa channel)
Rattus norvegicus [26] = species: Rattus norvegicus; assay: Antagonistic activity (pKb) was measured in the rat thoracic aorta; type: functional
[27] = Inhibition of glyburide binding to K-ATP potassium channel
[28] = Inhibition of currents and prolonged action potential duration in human atrial myocytes; type: functional, Cardiac atrium
[29] = target: T3, Small conductance calcium-activated potassium channel protein 1; assay: Inhibition of hSK1 calcium activated potassium channel (SKCa channel); Range is 1-2
Cavia porcellus [30] = species: Cavia porcellus; assay: The inhibitory concentration of compound on guinea pig portal vein; type: functional
Cavia porcellus [31] = species: Cavia porcellus; assay: The inhibitory concentration of compound on guinea pig bladder strips; type: functional
[32] = Inhibition of Kir6.1/SUR1 potassium channel K-ATP; parameters: species or system Homo sapiens
[33] = The inhibitory concentration for 50% was measured on the rat insulinoma cell line RIN-m5F; type: functional
Cavia porcellus [34] = species: Cavia porcellus; assay: The inhibitory concentration for 50% was measured on guinea pig cardiomyocytes; type: functional
[35] = target: Sulfonylurea receptor 1, Kir6.2 (Homo sapiens, UniProt Q09428+Q14654); assay: Inhibition of human SUR1/Kir6.2 expressed in CHO cells; type: cell-based
Rattus norvegicus [36] = species: Rattus norvegicus; assay: Antagonistic activity in the rat thoracic aorta; type: functional

T2 sequence (P22460 whole entry): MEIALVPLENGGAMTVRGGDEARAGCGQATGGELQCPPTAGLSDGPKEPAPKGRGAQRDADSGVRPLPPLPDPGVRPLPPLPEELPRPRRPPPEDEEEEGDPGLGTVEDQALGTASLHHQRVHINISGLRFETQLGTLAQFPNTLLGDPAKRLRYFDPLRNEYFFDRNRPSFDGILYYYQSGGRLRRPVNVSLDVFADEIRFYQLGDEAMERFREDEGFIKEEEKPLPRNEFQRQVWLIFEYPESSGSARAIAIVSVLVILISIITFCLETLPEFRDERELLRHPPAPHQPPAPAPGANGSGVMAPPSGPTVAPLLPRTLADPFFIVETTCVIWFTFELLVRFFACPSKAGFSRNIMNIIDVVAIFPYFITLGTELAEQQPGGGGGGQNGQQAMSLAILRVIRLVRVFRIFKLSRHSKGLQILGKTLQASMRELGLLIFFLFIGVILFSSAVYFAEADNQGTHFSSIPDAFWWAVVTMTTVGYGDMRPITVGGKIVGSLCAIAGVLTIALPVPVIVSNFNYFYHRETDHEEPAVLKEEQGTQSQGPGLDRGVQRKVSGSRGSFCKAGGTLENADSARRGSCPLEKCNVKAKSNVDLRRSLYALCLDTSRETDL
T1 sequence (Q14654 whole entry): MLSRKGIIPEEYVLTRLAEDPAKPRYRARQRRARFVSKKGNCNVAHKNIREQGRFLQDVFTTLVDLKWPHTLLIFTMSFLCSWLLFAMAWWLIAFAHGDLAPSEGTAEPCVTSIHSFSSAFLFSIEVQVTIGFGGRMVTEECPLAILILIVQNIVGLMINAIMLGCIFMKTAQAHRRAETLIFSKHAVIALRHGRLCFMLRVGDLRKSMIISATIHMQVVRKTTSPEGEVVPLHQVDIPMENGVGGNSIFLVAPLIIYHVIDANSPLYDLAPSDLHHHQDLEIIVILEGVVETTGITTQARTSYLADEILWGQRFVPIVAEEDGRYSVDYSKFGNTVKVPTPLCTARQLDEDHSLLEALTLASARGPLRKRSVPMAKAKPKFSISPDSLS
T1 sequence (O60706 whole entry): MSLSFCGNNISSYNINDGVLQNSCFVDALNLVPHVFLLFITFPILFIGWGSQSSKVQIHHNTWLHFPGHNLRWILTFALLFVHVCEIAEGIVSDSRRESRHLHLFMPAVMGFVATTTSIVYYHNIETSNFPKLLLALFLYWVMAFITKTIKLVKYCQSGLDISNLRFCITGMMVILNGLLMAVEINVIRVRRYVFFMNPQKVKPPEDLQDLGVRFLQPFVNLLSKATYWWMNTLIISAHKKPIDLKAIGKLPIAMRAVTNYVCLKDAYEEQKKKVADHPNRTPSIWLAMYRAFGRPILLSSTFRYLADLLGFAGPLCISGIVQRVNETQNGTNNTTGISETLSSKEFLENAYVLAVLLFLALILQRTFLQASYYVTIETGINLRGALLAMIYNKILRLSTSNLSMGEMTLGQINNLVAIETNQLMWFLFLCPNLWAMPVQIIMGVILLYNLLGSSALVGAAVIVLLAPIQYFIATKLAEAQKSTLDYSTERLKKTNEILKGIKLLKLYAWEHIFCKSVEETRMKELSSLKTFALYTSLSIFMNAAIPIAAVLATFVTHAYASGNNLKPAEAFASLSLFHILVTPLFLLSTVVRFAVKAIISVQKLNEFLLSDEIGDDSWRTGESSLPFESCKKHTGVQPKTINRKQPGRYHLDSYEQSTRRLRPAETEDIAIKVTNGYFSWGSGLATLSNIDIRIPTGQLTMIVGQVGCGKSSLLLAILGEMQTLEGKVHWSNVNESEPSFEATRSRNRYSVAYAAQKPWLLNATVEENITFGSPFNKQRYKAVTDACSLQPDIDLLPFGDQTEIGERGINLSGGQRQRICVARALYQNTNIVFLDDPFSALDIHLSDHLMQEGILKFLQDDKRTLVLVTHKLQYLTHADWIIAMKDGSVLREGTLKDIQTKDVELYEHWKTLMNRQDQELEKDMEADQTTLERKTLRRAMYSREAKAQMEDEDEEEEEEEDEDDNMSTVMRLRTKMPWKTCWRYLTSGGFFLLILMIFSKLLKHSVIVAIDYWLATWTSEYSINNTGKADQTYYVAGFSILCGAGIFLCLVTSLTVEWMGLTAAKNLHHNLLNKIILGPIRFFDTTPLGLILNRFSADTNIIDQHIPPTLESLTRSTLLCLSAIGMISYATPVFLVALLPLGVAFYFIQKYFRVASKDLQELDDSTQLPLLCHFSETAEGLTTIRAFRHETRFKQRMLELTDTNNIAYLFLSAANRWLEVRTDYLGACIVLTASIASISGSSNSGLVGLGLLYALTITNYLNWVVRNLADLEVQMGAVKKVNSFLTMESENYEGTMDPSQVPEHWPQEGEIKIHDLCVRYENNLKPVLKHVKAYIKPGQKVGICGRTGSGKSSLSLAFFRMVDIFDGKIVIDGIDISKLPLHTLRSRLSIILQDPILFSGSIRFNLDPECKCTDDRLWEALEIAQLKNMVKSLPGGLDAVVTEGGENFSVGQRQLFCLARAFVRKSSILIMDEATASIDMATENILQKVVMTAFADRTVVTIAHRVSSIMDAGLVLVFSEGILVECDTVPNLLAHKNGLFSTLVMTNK
T3 sequence (Q92952 whole entry): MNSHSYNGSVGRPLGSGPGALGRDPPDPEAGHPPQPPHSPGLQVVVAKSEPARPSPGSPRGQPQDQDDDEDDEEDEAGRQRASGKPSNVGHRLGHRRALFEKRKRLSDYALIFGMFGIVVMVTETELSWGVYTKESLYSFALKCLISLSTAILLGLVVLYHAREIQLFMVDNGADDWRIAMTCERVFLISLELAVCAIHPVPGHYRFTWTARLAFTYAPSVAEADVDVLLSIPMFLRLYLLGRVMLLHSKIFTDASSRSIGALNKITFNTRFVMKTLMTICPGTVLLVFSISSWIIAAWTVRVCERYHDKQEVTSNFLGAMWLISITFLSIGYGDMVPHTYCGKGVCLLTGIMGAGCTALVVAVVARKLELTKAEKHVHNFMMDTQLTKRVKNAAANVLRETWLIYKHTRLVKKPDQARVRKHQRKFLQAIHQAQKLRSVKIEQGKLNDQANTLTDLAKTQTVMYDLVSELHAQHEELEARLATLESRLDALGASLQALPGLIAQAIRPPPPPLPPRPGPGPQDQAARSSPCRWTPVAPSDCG
Sequence of Sulfonylurea receptor 1, Kir6.2 (Q14654 whole entry): as the sequence (Q14654 whole entry) above
Sequence of Sulfonylurea receptor 1, Kir6.2 (Q09428 whole entry): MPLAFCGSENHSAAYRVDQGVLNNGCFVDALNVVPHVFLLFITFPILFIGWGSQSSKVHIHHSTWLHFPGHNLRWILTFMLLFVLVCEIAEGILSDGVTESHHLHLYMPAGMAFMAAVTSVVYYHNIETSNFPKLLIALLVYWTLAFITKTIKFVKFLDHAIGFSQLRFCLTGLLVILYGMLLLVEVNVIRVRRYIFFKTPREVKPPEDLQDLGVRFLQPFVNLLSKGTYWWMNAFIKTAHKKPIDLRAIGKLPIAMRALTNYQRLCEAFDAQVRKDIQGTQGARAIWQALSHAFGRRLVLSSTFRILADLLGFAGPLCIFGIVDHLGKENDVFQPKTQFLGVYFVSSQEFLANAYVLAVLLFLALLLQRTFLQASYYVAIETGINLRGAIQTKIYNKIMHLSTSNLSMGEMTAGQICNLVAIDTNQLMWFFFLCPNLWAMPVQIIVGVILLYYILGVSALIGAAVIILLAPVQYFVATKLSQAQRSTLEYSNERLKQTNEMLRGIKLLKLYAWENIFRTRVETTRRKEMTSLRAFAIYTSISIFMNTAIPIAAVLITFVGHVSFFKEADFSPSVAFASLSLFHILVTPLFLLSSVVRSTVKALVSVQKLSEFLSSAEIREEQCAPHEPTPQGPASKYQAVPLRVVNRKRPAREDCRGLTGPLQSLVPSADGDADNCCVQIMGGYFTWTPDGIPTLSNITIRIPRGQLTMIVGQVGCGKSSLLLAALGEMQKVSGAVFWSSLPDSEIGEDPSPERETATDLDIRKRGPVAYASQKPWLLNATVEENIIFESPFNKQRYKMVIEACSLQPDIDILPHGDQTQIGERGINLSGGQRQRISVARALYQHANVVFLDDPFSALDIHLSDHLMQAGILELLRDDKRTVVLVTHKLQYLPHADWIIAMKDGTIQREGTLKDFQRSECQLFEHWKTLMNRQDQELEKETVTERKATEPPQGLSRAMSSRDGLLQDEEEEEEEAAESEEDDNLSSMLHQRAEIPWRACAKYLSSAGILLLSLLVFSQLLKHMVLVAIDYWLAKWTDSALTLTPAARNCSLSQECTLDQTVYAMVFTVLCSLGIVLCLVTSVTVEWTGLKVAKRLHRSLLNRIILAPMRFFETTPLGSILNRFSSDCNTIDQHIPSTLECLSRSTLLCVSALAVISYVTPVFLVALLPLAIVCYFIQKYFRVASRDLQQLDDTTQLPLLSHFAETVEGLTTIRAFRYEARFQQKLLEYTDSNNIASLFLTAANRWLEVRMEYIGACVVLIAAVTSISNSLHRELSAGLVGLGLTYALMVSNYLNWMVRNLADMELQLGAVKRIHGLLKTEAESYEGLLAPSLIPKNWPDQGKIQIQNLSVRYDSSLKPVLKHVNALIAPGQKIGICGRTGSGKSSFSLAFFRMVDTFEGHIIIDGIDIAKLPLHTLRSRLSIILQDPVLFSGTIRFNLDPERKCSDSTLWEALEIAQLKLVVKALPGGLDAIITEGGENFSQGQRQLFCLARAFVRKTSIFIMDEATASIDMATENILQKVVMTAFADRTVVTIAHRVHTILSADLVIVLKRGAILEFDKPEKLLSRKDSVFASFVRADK

SMILES: Cc1cc(-c2ccc3c(c2)[C@@H](NC(=O)c2cccnc2)[C@H](O)C(C)(C)O3)ccn1
ED20 (Cavia porcellus [1]): 100 µg/kg
ED50 (Cavia porcellus [2]): 0.08 µg/kg

SMILES: CC(NC1=NS(=O)(=O)c2cccnc2N1)C(C)(C)C (stereo not drawn)
EC50 (Rattus norvegicus [7]): 7.5 µM
Insulin release (Rattus norvegicus [8]): 98.9%

SMILES: CC1=Nc2ccc(Cl)cc2S(=O)(=O)N1 [DIAZOXIDE]
EC50 (Rattus norvegicus [7]): 19.3 µM
Insulin release (Rattus norvegicus [8]): 28.8%

SMILES: CC[C@@H](N/C(=N/C#N)Nc1cccnc1)c1ccccc1
NA [9]: inactive

SMILES: CC(C)(C)O/N=C(\c1cc(Br)c(F)cc1O)c1c(O)ccc[n+]1[O-]
IC50 (Rattus norvegicus [10]): 0.28 µM

SMILES: NC(=O)C(c1ccccc1)(c1ccc(F)cc1)c1ccccc1F (stereo not drawn)
IC50 [16]: 0.009 µM
IC50 [17]: 2 µM

SMILES: CC1(C)Oc2ccc(C#N)cc2[C@@H](/N=C(\NC#N)Nc2ccc(Cl)cc2)[C@@H]1O
Ratio [4]: 1.4
EC25 (Rattus norvegicus [5]): 2.5 µM

SMILES: CNC(=S)C1(C(=O)c2ccc(-n3ccnc3)cc2)CCC1
EC50 (Rattus norvegicus [18]): 5.3 µM
Kd [19]: 5.2 µM
Kd [20]: 8.5 µM
IC50 (Rattus norvegicus [21]): 12 µM

SMILES: CCCCc1ccc(S(=O)(=O)N[C@@H]2c3cc(NC(=O)c4cccc(OC)c4)ccc3CC[C@H]2O)cc1
IC50 [23]: ~2.9 µM
IC50 [24]: ~0.05 µM

SMILES: c1cc2cc(c1)C[n+]1ccc(c3ccccc31)NCc1ccc(cc1)CNc1cc[n+](c3ccccc13)C2
IC50 [25]: 0.003 µM

SMILES: CC(O)(C(=O)Nc1cccc2c1C(=O)c1sccc1CO2)C(F)(F)F (stereo not drawn)
IC50 (Cavia porcellus [6]): 2.1 µM

SMILES: Fc1ccc(CN(C2=NCCN2)c2c(Cl)cccc2Cl)cc1
pKb (Rattus norvegicus [26]): 7.1

SMILES: CC(NC1=NS(=O)(=O)c2cc(Cl)cnc2N1)C(C)(C)C (stereo not drawn)
EC50 (Rattus norvegicus [7]): 2.3 µM
Insulin release (Rattus norvegicus [8]): 41.5%

SMILES: CC(C)CN(CC(C)C)S(=O)(=O)c1ccc2c(c1)[C@@H](/N=C(\NC#N)Nc1ccc(Cl)cc1)[C@H](O)C(C)(C)O2
Ratio [4]: < 0.004
EC25 (Rattus norvegicus [5]): 0.04 µM

SMILES: CC(NC1=NS(=O)(=O)c2cnccc2N1)C(C)(C)C (stereo not drawn)
EC50 (Rattus norvegicus [7]): 154 µM
Insulin release (Rattus norvegicus [8]): 7.1%

SMILES: c1ccc2c(c1)c1cc[n+]2CCCCC[n+]2ccc(c3ccccc32)NCCCCCN1
IC50 [29]: 0.001 µM

SMILES: C1CCC(/N=C(\NC23CC4CC(CC(C4)C2)C3)N2CCOCC2)CC1
IC50 [32]: 32 µM

SMILES: CNC(=S)NS(=O)(=O)c1cc(CCNC(=O)c2cc(Cl)ccc2OC)ccc1OC [CLAMIKALANT]
IC50 [11]: 4.3 µM
IC50 [33]: 7.5 µM
IC50 (Cavia porcellus [34]): 0.8 µM
IC50 [35]: 8.2 µM

SMILES: C=CCN(C1=NCCN1)c1c(Cl)cccc1Cl [ALINIDINE]
pKb (Rattus norvegicus [36]): 5.5

SMILES: C[C@@H](N/C(=N/C#N)Nc1cccnc1)c1ccccc1
NA [9]: inactive

The next lines start with results.

IC50 (Rattus norvegicus [3]): 0.032 µM
SMILES: CC1(C)Oc2ccc(C#N)cc2[C@H](N2CCCC2=O)[C@H]1O [(-)-CROMAKALIM]
Ratio [4]: 278
EC25 (Rattus norvegicus [5]): 8.9 µM

IC50 (Cavia porcellus [6]): 2.5 µM
SMILES: C[C@](O)(C(=O)Nc1cccc2c1C(=O)c1sccc1CS2(=O)=O)C(F)(F)F

IC50 [11]: 0.22 µM
IC50 (Rattus norvegicus [12]): 0.0016 µM
SMILES: COc1ccc(Cl)cc1C(=O)NCCc1ccc(S(=O)(=O)NC(=O)NC2CCCCC2)cc1 [GLYBURIDE]
IC50 (Cavia porcellus [13]): 0.008 µM

IC50 (Cavia porcellus [14]): 0.54 µM
SMILES: Cc1c(-c2ccccc2F)[nH]c(N)c1C#N

IC50 [15]: 2 µM
SMILES: O=C1NCCN1CCN1CCC(c2cn(-c3ccc(F)cc3)c3ccc(Cl)cc23)CC1 [SERTINDOLE]

IC50 [22]: 0.352 µM
SMILES: COc1ccc(Cl)cc1[C@]1(F)C(=O)Nc2cc(C(F)(F)F)ccc21 [FLINDOKALNER]

IC50 [27]: 0.018 µM
SMILES: N#C/N=C(\Nc1cccnc1)NC1(c2cccc(Cl)c2)CCC1

IC50 [24]: 0.1 µM
SMILES: CCc1ccc(S(=O)(=O)N[C@@H]2c3cc(NC(=O)c4cccc(OC)c4)ccc3C[C@H]2O)cc1
Inhibition [28]: >50%

IC50 (Rattus norvegicus [3]): > 30 µM
SMILES: CC1(C)Oc2ccc(C#N)cc2[C@H](N(Cc2ncc[nH]2)c2ccc(Cl)cc2)[C@H]1O [BMS-191095]
Ratio [4]: < 0.05
EC25 (Rattus norvegicus [5]): 1.4 µM

IC50 (Cavia porcellus [30]): 0.75 µM
IC50 (Cavia porcellus [31]): 4.2 µM
SMILES: N#Cc1cccc(C2C3=C(CCCC3=O)NC3=C2C(=O)CCC3)c1

Source: ChEMBL document CHEMBL1134478, “Recent developments in the biology and medicinal chemistry of potassium channel modulators: update from a decade of progress” (J Med Chem, 2001)
